According to ChEMBL document CHEMBL1201862, “PubChem BioAssay data set” (2004):
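Compound exposure: 48 hours, 5 concentrations, 96-well plates. GI50 = concentration required for 50% inhibition of growth.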 Activity calls are given as the source filed them. Rule as the data show it: active = GI50 up to about 1.1 µM and inactive = higher.

Tests used:
Test in all cases: NCI-60 cell line screen, 48 h
DMS-273 = test system: DMS-273
LXFL 529 = test system: LXFL 529
M19-MEL = test system: M19-MEL
DLD-1 = test system: DLD-1
SNB-78 = test system: SNB-78
XF498 = test system: XF498
DMS-114 = test system: DMS-114
HOP-18 = test system: HOP-18
RXF 631 = test system: RXF 631

| SMILES | GI50 (DMS-273) | GI50 (LXFL 529) | GI50 (M19-MEL) | GI50 (DLD-1) | GI50 (SNB-78) | GI50 (XF498) | GI50 (DMS-114) | GI50 (HOP-18) | GI50 (RXF 631) |
| --- | --- | --- | --- | --- | --- | --- | --- | --- | --- |
| N=c1oc2c(O)c(O)ccc2cc1C(N)=O | > 100 µM (inactive) | 31.6 µM (inactive) | 21.3 µM (inactive) | > 100 µM (inactive) | > 100 µM (inactive) | 25.2 µM (inactive) | 35.4 µM (inactive) | – | – |
| COc1cc2c3c(c1OC)C(=O)C=C3N(S(=O)(=O)c1ccc(C)cc1)CC2 | > 100 µM (inactive) | > 100 µM (inactive) | > 100 µM (inactive) | > 100 µM (inactive) | > 100 µM (inactive) | 72.9 µM (inactive) | > 100 µM (inactive) | > 100 µM (inactive) | – |
| Cc1ccc(NC(=O)CCc2nnc(N)o2)cc1 | > 100 µM (inactive) | > 100 µM (inactive) | > 100 µM (inactive) | > 100 µM (inactive) | > 100 µM (inactive) | > 100 µM (inactive) | > 100 µM (inactive) | – | > 31.6 µM (inactive) |
| CN1C(=O)c2cccc3c([N+](=O)[O-])ccc(c23)C1=O | 4.23 µM (inactive) | 1.46 µM (inactive) | 10.4 µM (inactive) | 2.82 µM (inactive) | 14 µM (inactive) | – | 4.1 µM (inactive) | 17.1 µM (inactive) | 2.58 µM (inactive) |
| Cc1ccc(S(=O)(=O)ON/N=C2/C3OC3[C@@H]3CCCC[C@H]23)cc1 (some centres undefined) | > 100 µM (inactive) | > 100 µM (inactive) | > 100 µM (inactive) | > 100 µM (inactive) | – | > 100 µM (inactive) | – | > 100 µM (inactive) | – |
| O=C(O)/C=C/n1c2ccccc2c(=O)c2ccccc21 | > 100 µM (inactive) | – | > 100 µM (inactive) | > 100 µM (inactive) | > 100 µM (inactive) | > 100 µM (inactive) | > 100 µM (inactive) | – | > 100 µM (inactive) |
| CCOC(=O)C1=C(O)C(=O)c2cc(OC)ccc2C1=O | > 100 µM (inactive) | – | 20.7 µM (inactive) | > 100 µM (inactive) | > 100 µM (inactive) | – | > 100 µM (inactive) | 4.51 µM (inactive) | – |
| Nc1ncnc2c1ncn2C1OC(CSC(F)F)C(O)C1O (centres undefined) | > 100 µM (inactive) | > 100 µM (inactive) | – | > 100 µM (inactive) | > 100 µM (inactive) | – | > 100 µM (inactive) | > 100 µM (inactive) | > 100 µM (inactive) |
| NC(CCC(=O)NC(CSC(=O)N(O)c1ccccc1)C(=O)NCC(=O)O)C(=O)O (centres undefined) | > 1000 µM (inactive) | > 1000 µM (inactive) | > 1000 µM (inactive) | > 1000 µM (inactive) | > 1000 µM (inactive) | – | > 1000 µM (inactive) | – | – |
| CCOC(=O)C1C(=O)C(=O)N2CCc3c([nH]c4ccccc34)C12 (centres undefined) | – | > 100 µM (inactive) | > 100 µM (inactive) | > 100 µM (inactive) | – | – | > 100 µM (inactive) | – | – |
| COc1ccc(/C(Cl)=C(\C=O)c2ccc(Br)cc2)cc1OC | > 100 µM (inactive) | > 100 µM (inactive) | > 100 µM (inactive) | > 100 µM (inactive) | 25.4 µM (inactive) | 9.33 µM (inactive) | – | 48.4 µM (inactive) | > 62.4 µM (inactive) |
| CCOc1ccc2nc(NC(=O)C(=O)C(C#N)CC(C)(C)C=O)sc2c1 (centres undefined) | 18.7 µM (inactive) | > 100 µM (inactive) | 61.2 µM (inactive) | > 100 µM (inactive) | > 100 µM (inactive) | > 100 µM (inactive) | 35.6 µM (inactive) | > 100 µM (inactive) | > 100 µM (inactive) |
| O=S1(=O)CS(=O)(=O)OCCCCCO1 | > 100 µM (inactive) | > 100 µM (inactive) | > 100 µM (inactive) | > 100 µM (inactive) | > 100 µM (inactive) | – | > 100 µM (inactive) | > 100 µM (inactive) | > 100 µM (inactive) |
| C[N+]1(C)C/C(=C\c2ccc(O)cc2)C(=O)/C(=C/c2ccc(O)cc2)C1 | 53 µM (inactive) | 60.5 µM (inactive) | > 100 µM (inactive) | 49.7 µM (inactive) | > 100 µM (inactive) | – | 21.4 µM (inactive) | > 100 µM (inactive) | – |
| C=C(CN(C)C)C(=O)c1ccc(C)cc1C | 18.2 µM (inactive) | 12.5 µM (inactive) | 18.7 µM (inactive) | 3.88 µM (inactive) | 22.9 µM (inactive) | 12 µM (inactive) | 21.6 µM (inactive) | 16 µM (inactive) | 20.4 µM (inactive) |
| COc1ccc(CNc2cnc3cc(N)ccc3n2)cc1OC | > 100 µM (inactive) | – | > 100 µM (inactive) | > 100 µM (inactive) | – | – | > 100 µM (inactive) | – | – |
| Cc1cn(C2CC(CCCO)C(CO)O2)c(=O)[nH]c1=O (centres undefined) | > 100 µM (inactive) | > 100 µM (inactive) | > 100 µM (inactive) | > 100 µM (inactive) | – | > 100 µM (inactive) | > 100 µM (inactive) | – | – |
| Cc1c(C(=O)c2ccccc2C(=O)O)c2ccccc2n1C | > 100 µM (inactive) | > 100 µM (inactive) | > 100 µM (inactive) | > 100 µM (inactive) | > 100 µM (inactive) | > 100 µM (inactive) | > 100 µM (inactive) | – | – |
| CC(C)(C)C#COC(=O)c1ccccc1 | – | > 100 µM (inactive) | > 100 µM (inactive) | > 100 µM (inactive) | > 100 µM (inactive) | – | > 100 µM (inactive) | – | – |
| Cc1ccc(/C=C(\C#N)c2ccccc2)cc1 | > 100 µM (inactive) | > 100 µM (inactive) | > 100 µM (inactive) | > 100 µM (inactive) | > 100 µM (inactive) | – | > 100 µM (inactive) | > 100 µM (inactive) | – |
| CCOC(=O)[C@H]1Nc2ccc(Cl)cc2[C@H]2CCC[C@@H]12 | > 100 µM (inactive) | > 100 µM (inactive) | > 100 µM (inactive) | > 100 µM (inactive) | > 100 µM (inactive) | > 100 µM (inactive) | 95.3 µM (inactive) | 53.2 µM (inactive) | – |
| Cc1cc(C)nc(NS(=O)(=O)c2ccc(Nc3c4ccccc4nc4c(C(=O)N5CCN(CCO)CC5)cccc34)cc2)n1 | > 100 µM (inactive) | > 100 µM (inactive) | > 100 µM (inactive) | > 100 µM (inactive) | > 100 µM (inactive) | > 100 µM (inactive) | > 100 µM (inactive) | > 100 µM (inactive) | – |
| CC(C)N(C(=O)C12C3C4C1C1C4(C#N)C3C12C(=O)O)C(C)C (centres undefined) | > 100 µM (inactive) | > 100 µM (inactive) | > 100 µM (inactive) | > 100 µM (inactive) | > 100 µM (inactive) | > 100 µM (inactive) | > 100 µM (inactive) | > 100 µM (inactive) | > 100 µM (inactive) |
| CN(C)CC/C(=N\Nc1c(F)c(F)c(F)c(F)c1F)c1ccccc1 | 29.2 µM (inactive) | 42.3 µM (inactive) | 70.1 µM (inactive) | 8.63 µM (inactive) | 41.1 µM (inactive) | – | 25.5 µM (inactive) | 23.6 µM (inactive) | – |
| OC1CC(O)O[C@H](c2ccccc2)C1 (some centres undefined) | > 100 µM (inactive) | > 100 µM (inactive) | > 100 µM (inactive) | > 100 µM (inactive) | > 100 µM (inactive) | – | – | > 100 µM (inactive) | – |
| C[C@H]1[C@H](C)CC[C@]2(C(=O)O)CCC3(COC(=O)/C=C/c4ccc(O)cc4)C(=CCC4[C@@]5(C)CC[C@H](O)C(C)(C)C5CC[C@]43C)[C@H]12 (some centres undefined) | 4.76 µM (inactive) | 3.83 µM (inactive) | 22.3 µM (inactive) | 3.39 µM (inactive) | 43.8 µM (inactive) | – | 3.72 µM (inactive) | 18.3 µM (inactive) | 7.55 µM (inactive) |
| CC(=O)OC1C[C@H]2C(OC(=O)c3ccccc3)C3C4(OC(C)=O)COC4C[C@H](OC(C)=O)[C@@]3(C)C(OC(C)=O)[C@H](OC(C)=O)C(=C1C)C2(C)C (some centres undefined) | 24.9 µM (inactive) | 22.3 µM (inactive) | 57.9 µM (inactive) | 32.7 µM (inactive) | 37.9 µM (inactive) | 19.8 µM (inactive) | 22.2 µM (inactive) | 20.1 µM (inactive) | – |
| O=C1c2ccsc2C(=O)c2sc(CO)cc21 | 0.0327 µM (active) | 0.161 µM (active) | – | 0.176 µM (active) | 0.322 µM (active) | 0.352 µM (active) | – | 0.0349 µM (active) | – |
| C/C(=N\NC(=S)N1CCCCCC1)c1ccccn1 | < 0.001 µM (active) | < 0.001 µM (active) | 0.0883 µM (active) | < 0.001 µM (active) | 0.741 µM (active) | 0.0014 µM (active) | < 0.001 µM (active) | 0.123 µM (active) | 0.0386 µM (active) |
| Cc1c2cc[n+](C)cc2c(C)c2c1[nH]c1ccc(Oc3ccccc3)cc12 | 0.596 µM (active) | 0.282 µM (active) | – | 0.906 µM (active) | – | – | – | – | – |
